Reference: PMC4802219, “Improved dialytic removal of protein-bound uraemic toxins with use of albumin binding competitors: an in vitro human whole blood study” (Scientific Reports, 2016)

What was measured:
albumin [1] = target: T1, albumin (Homo sapiens, UniProt P02768); assay: Static RED assay of IS displacement by ibuprofen with or without furosemide in normal human plasma; type: binding; conditions: normal human plasma spiked with IS 150 μmol/l, ibuprofen 0 to 931 μmol/l, furosemide 0.18 mmol/l (Fig. 3)
T1 construct: from tissue; host or cells: human uraemic plasma

albumin [2] = target: T1, albumin; assay: Static RED assay of PBUT displacement by binding competitors in uraemic plasma; conditions: for displacement of IS and PCS: RED assay (Fig. 1); for increase of free fraction of IS / increase of free fraction of PCS: displacer 1 mmol/l, RED 4 h 37 °C, compared to PBS
Description: We evaluated the albumin binding of uraemic toxins and their interaction with displacers in human uraemic plasma utilizing the RED device. Candidate displacers were mixed with uraemic plasma before incubation. The test mixture (300 μl) was added into the sample chamber, while the buffer chamber was filled with 500 μl PBS. After 4 hours of incubation (37 °C, 250 rpm), samples were collected from both chambers for HPLC analysis. The concentration of all displacers and negative control (antipyrine) in the incubations was 1 mmol/l. For furosemide, incubations at final concentration of 0.18 mmol/l were also included since this is the clinically relevant concentration for intravenous administration.
(§1) Blood samples were centrifuged at 13200 rpm for 3 mins. The plasma layer was collected and stored at −80 °C. Plasma samples (50 μl) were precipitated with 100 μl of ice-cold acetonitrile to precipitate the proteins. The samples were then vortexed thoroughly and centrifuged at 3000 rpm for 10 minutes. The supernatant, containing the uraemic toxins and displacers, was collected and further diluted 1:1 with deionized water before HPLC injection. The dialysate samples (100 μl) were diluted with 100 μl water before HPLC injection.
(§2) Measurements were calibrated with standard curves for all analytes, and were linear over the concentration range of the experiments. Measurements were performed on an Agilent 1100 system (Agilent Technologies, Dover, DE, USA) equipped with a C18 column (Kinetex 5 μm C18 100 Å, LC Column 150 × 4.6 mm, Phenomenex, Torrance, CA, USA). Mobile phase A: ammonium formate, 20 mmol/l, pH 4. Mobile phase B: acetonitrile. The gradient profile for mobile phase B was: 0–2 min, 15%; 11–14 min, 100%; 14.2–16 min, 15%; and the flow rate gradient was 0–11.2 min, 0.4 ml/min; 11.2–16 min 0.5 ml/min. […] HIPA and furosemide were detected at 230 nm with the UV-Vis detector. The injection volume was 5 μl.
For PBUT displacement in RED assays, Dunnett’s post-analysis comparisons to PBS were performed by one way ANOVA using GraphPad Prism (GraphPad Software, La Jolla, CA).

[3] = set-up: method as in PMID 973966, PMID 3514052; conditions: cited from earlier work
albumin [4] = target: T1, albumin; assay: Single-pass haemodialysis model with uraemic human whole blood and pre-dialyzer displacer infusion
Description: All experiments were carried out in triplicate.
as §1
as §2, with “acetonitrile.” for “acetonitrile. The gradient profile for mobile phase B was: 0–2 min, 15%; 11–14 min, 100%; 14.2–16 min, 15%; and the flow rate gradient was 0–11.2 min, 0.4 ml/min; 11.2–16 min 0.5 ml/min.”

[5] = intervention phase vs baseline phase, P < 0.0001

T1 sequence (P02768 25-609): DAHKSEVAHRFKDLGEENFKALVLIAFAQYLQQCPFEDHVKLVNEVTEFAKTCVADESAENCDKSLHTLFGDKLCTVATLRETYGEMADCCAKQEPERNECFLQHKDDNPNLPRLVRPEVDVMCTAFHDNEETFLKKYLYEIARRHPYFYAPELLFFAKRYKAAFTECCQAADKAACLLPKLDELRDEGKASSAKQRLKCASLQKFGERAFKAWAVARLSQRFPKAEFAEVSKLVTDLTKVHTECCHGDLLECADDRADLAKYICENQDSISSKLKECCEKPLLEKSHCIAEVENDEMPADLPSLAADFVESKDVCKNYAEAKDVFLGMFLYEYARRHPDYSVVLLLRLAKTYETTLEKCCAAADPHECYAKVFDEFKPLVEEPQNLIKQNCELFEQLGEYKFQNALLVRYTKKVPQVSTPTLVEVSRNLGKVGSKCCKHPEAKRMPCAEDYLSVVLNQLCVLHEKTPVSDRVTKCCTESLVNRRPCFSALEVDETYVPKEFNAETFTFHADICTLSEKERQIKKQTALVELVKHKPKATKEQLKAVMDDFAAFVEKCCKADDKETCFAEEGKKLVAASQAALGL

NS(=O)(=O)c1cc(C(=O)O)c(NCc2ccco2)cc1Cl [furosemide]
effect on IS displacement by ibuprofen when given simultaneously (albumin [1]): boost the IS displacement effect of ibuprofen | increase in the free fraction of IS (albumin [2]; furosemide alone at 0.18 mmol/l (Fig. 1)): did not induce a significant increase | displacement of IS and PCS (albumin [2]; uraemic plasma): limited displacement effect | displacement of HIPA (albumin [2]; uraemic plasma, RED assay (Fig. 2)): significant displacement | increase of free fraction of IS (albumin [2]; uraemic plasma): ~1.3 fold | increase of free fraction of PCS (albumin [2]; uraemic plasma): ~1.3 fold

Cc1cc(=O)n(-c2ccccc2)n1C [antipyrine]
protein binding capability [3]: lacks protein binding capability | change in uraemic toxin protein binding (albumin [2]; uraemic plasma, negative control 1 mmol/l (Figs 1 and 2)): did not lead to a significant change

N[C@@H](Cc1c[nH]c2ccccc12)C(=O)O [tryptophan, L-Tryptophan]
HIPA removal (albumin [4]; human whole blood, HIPA 400 μmol/l (1 mmol/l with tryptophan) (Fig. 6)): virtually unaffected | fractional removal of IAA during displacer infusion (albumin [4]; human whole blood, IAA 15 μmol/l, Qb 12.5 ml/min, Qd 25 ml/min, mean ± SEM, N = 3): 27.1 ± 0.3% | fractional removal of IS during displacer infusion (albumin [4]; human whole blood, IS 150 μmol/l, Qb 12.5 ml/min, Qd 25 ml/min, mean ± SEM, N = 3): 10.5 ± 0.1% | increase of IAA removal (albumin [4]; [5]): 1.3 fold | increase of IS removal (albumin [4]; [5]): 1.4 fold | displacement of IS and PCS (albumin [2]; uraemic plasma): more efficiently than HIPA | increase of free fraction of IS (albumin [2]; uraemic plasma): ~2 fold | increase of free fraction of PCS (albumin [2]; uraemic plasma): ~2 fold
